{"source": "patent US10076505B2", "about": "“Inhalation formulations of Treprostinil” (priority 2003, dated 2018)", "key": {"sheep [1]": {"test_system": "sheep", "test": "Aerosolized UT-15 at high doses on baseline hemodynamics (Example III)", "type": "in vivo", "source_text": "The efficacy of benzindene prostaglandins, such as UT-15, for treating pulmonary hypertension can be assessed by determining the hemodynamics associated with pulmonary hypertension. In particular, measurements of pulmonary arterial pressure (PPA), left atrial pressure (PLA), central venous pressure (PCV), systemic arterial pressure (PSYS), heart rate (HR), and cardiac output (CO) are useful in determining the effects of benzindene prostaglandins delivered by inhalation or parenterally.\nAlthough pulmonary arterial pressure can be directly measured and is often used to quantify pulmonary arterial hypertension, PPA can be affected by 3 other variables: CO, PLA and PVR, as indicated by Equation 1: PPA=(CO*PVR)+PLA (1)\nOn the other hand, PVR can not be directly measured and must be calculated by the following Equation 2: PVR=(PPA−PLA)/CO (2)\nHeart rate was determined by measuring the time (seconds) required for 25 heart beats to occur (t25) as indicated by the pulsations on the blood flow meter; the beats per minute (BPM) were calculated by the following equation: BPM=(25 beats/t25)*60 seconds\nAll pressure may be monitored by commercially available transducers, such as Model 1290A HEWLETT PACKARD™ transducer (Andover, Mass.), which is attached to VALIDYNE CD19A Carrier Dmod. Amplifiers (Northridge, Calif.). Cardiac output may be measured by a Transonic Systems T101 Ultrasonic Bloodflow Meter (Ithaca, N.Y.). The pressure and blood flow signals may be recorded on ASTROMED MT-9500 Stripchart Recorder (West Warwick, R.I.) and digitally recorded with a personal computer using Easy Data Acquisition Software (Nashville, Tenn.).\n(§1) Six yearling sheep (3 males, 3 females; 21-37 kg) were fasted 18-24 hours and initially anesthetized with a short acting barbiturate (thiopental) to allow intubation of the sheep. Halothane gas anesthesia (1.5-2.5%) was then used for the surgical procedures. Via a left thoracotomy, a Transonic blood flow probe was placed around the main pulmonary artery, silastic catheters placed in the main pulmonary artery and left atrium. After approximately 7 days the sheep were reanesthetized and the left carotid artery cannulated, a Cordis Introducer Sheath inserted in the left jugular vein, and a tracheotomy made. The sheep were allowed to recover for another 3-5 days prior to experimentation. These sheep were used to allow measurement of pulmonary arterial pressure (PPA), left atrial pressure (PLA), central venous pressure (PCV), systemic arterial pressure (PSYS), heart rate (HR), and cardiac output (CO) after baseline measurements were made for a minimum of 30 minutes.\nBaseline measurements consisted of 30 minutes of monitoring during vehicle/saline aerosolization (0.28 ml/min). […]"}, "sheep [2]": {"test_system": "sheep", "test": "Intravenous and aerosolized UT-15 dose response on baseline hemodynamics (Example IV)", "type": "in vivo", "settings": "baseline conditions; for PCV relative to baseline: any dose; for CO relative to baseline: any delivery rate; for PSYS: any rate", "procedure": "as §1, with “minutes. Two separate experiments were conducted to determine the dose response effects of intravenously infused UT-15 on baseline hemodynamics and aerosolized UT-15 on baseline hemodynamics. For the infusion experimental protocol, after a 30 minute baseline was established, UT-15 was infused intravenously at 3 rates (250, 500 and 1000 ng per kg per min). In three sheep, the infusion rates lasted for 30 minutes each, and for the other three sheep, the infusions were for 60 minutes each. […] Again, three sheep were aerosolized for 30 minutes and the other three sheep were aerosolized for 60 minutes.” for “minutes.”"}, "digital ischemic lesions": {"test_system": "digital ischemic lesions", "test": "Subcutaneous Treprostinil in scleroderma patients with digital ischemic lesions (Example VII)", "type": "in vivo, human", "settings": "continuous subcutaneous infusion, 12 weeks, increasing dose", "procedure": "Scleroderma patients having at least one lesion (i.e., small sore or area of tissue gangrene) present on a hand or finger are dosed with increasing amounts of Treprostinil over 12 weeks. The medication is delivered by a small pump that is connected to a catheter placed under the skin. In this manner, increasing dosages of Treprostinil are administered to patients by chronic continuous subcutaneous infusion. Specifically, a 1.0 mg/mL formulation of Treprostinil sodium) (REMODULIN®) is administered subcutaneously using a standard micro-infusion, positive-pressure infusion pump designed for subcutaneous drug delivery (Mini-Med). Patients receive an initial dose of 2.5 ng/kg/min of study drug. […] After that, the dose is raised by 2.50 ng/kg/min each week until not tolerated or once a target dose is reached. Dosing is increased weekly unless not tolerated by the patient. […] One example of a target dose is 15 ng/kg/min. The minimum dose is usually not less than 0.625 ng/kg/min."}, "[3]": {"test_system": "human pulmonary arterial smooth muscle cells", "settings": "cited from earlier work"}, "[4]": {"test_system": "large blood vessels of the lower limbs", "settings": "patients with severe intermittent claudication; cited from earlier work"}, "[5]": {"test_system": "patients with class III or class IV heart failure", "settings": "cited from earlier work"}, "[6]": {"settings": "3800-5700 ng per kg per min, 90 minutes"}}}
{"smiles": "CCCCC[C@H](O)CC[C@@H]1[C@H]2Cc3cccc(OCC(=O)O)c3C[C@H]2C[C@H]1O", "note": "[UT-15, 9-deoxy-2′,9-alpha-methano-3-oxa-4,5,6-trinor-3,7-(1′,3′-interphenylene)-13,14-dihydro-prostaglandin F1]", "values": [{"measurement": "PPA decrease relative to baseline", "setting": "sheep [1]; [6]", "result": "approximately 18%"}, {"measurement": "PSYS decrease relative to baseline", "setting": "sheep [1]; [6]", "result": 7.5, "unit": "%"}, {"measurement": "PVR decrease relative to baseline", "setting": "sheep [1]; [6]", "result": "approximately 19%"}, {"measurement": "non-lung effects (heart rate, cardiac output)", "setting": "sheep [1]; high doses", "result": "without significant non-lung effects"}, {"measurement": "PCV relative to baseline", "setting": "sheep [2]; aerosol", "result": "no statistical difference"}, {"measurement": "PLA relative to baseline", "setting": "sheep [2]; aerosolized (mean values increased)", "result": "neither intravenous nor aerosolized UT-15 caused PLA to significantly change"}, {"measurement": "heart rate", "setting": "sheep [2]; aerosolized, 3 rates", "result": "no effect"}, {"measurement": "pulmonary vascular driving pressure (PPA minus PLA) change from baseline", "setting": "sheep [2]; aerosolized, 250, 500, and 100 ng per kg per min", "result": "significant"}, {"measurement": "PVR", "setting": "sheep [2]; aerosolized, all 3 delivery rates", "result": "significant decrease"}, {"measurement": "CO relative to baseline", "setting": "sheep [2]; aerosolized", "result": "no significant changes"}, {"measurement": "PSYS", "setting": "sheep [2]; aerosolized", "result": "no significant effect"}, {"measurement": "PPA relative to baseline", "setting": "sheep [2]; aerosolized, not statistically different", "result": "general trend for PPA to decrease"}, {"measurement": "PVR", "setting": "sheep [2]; intravenous", "result": "no significant effect"}, {"measurement": "heart rate", "setting": "sheep [2]; intravenous 250, 500 and 1000 ng per kg per min", "result": "significantly increased"}, {"measurement": "PLA relative to baseline", "setting": "sheep [2]; intravenous (mean values decreased)", "result": "neither intravenous nor aerosolized UT-15 caused PLA to significantly change"}, {"measurement": "CO relative to baseline", "setting": "sheep [2]; intravenous", "result": "no significant changes"}, {"measurement": "PCV relative to baseline", "setting": "sheep [2]; intravenous", "result": "no statistical difference"}, {"measurement": "PSYS", "setting": "sheep [2]; intravenous", "result": "no significant effect"}, {"measurement": "PPA relative to baseline", "setting": "sheep [2]; intravenous, same as PCV (no statistical difference)", "result": "The same effects were also observed"}, {"measurement": "lesions present before treatment", "setting": "digital ischemic lesions", "result": "reduction in the number, size and severity"}, {"measurement": "new lesions associated with scleroderma", "setting": "digital ischemic lesions", "result": "fewer new lesions"}, {"measurement": "proliferation of human pulmonary arterial smooth muscle cells", "setting": "[3]", "result": "inhibits proliferation"}, {"measurement": "blood flow in large blood vessels of the lower limbs", "setting": "[4]", "result": "increase in blood flow"}, {"measurement": "vasodilator effects", "setting": "[5]", "result": "vasodilator effects"}]}
